Laboratory results published in patent US8741884B2, “Compounds for the treatment of hepatitis C” (priority 2010, dated 2014).
pEC50: −log10 of the molar value.

tested on: HCV pseudoparticles (genotype 1a HCV E1 and E2 envelope, H77C isolate); assay: microbe, parasite or virus in culture; format: cell-based; details: Hepatitis C virus, Huh-7, 48 h, class symbol; HCV pseudoparticles genotype 1a (H77C), Huh7 cells, luciferase 2 days after infection, average of duplicates

SMILES	pEC50
CCCN1CCCOc2ccc(cc2)CNc2nc(nc(OCC(F)(F)F)n2)Nc2ccc(C(=O)NCC3(CN4CCCC4)CC3)c(c2)OCCC1 [Example 3012]	7.00 to 10.00
CC(C)CN1CCCOc2ccc(cc2)CNc2nc(nc(OCC(F)(F)F)n2)Nc2ccc(C(=O)NCC3(CN4CCCC4)CC3)c(c2)OCCC1 [Example 3013]	7.00 to 10.00
CCCCN1CCCOc2ccc(cc2)CNc2nc(nc(OCC(F)(F)F)n2)Nc2ccc(C(=O)NCC3(CN4CCCC4)CC3)c(c2)OCCC1 [Example 3014]	7.00 to 10.00
COC(=O)c1ccc2cc1OCCCCNCCCOc1ccc(cc1)CNc1nc(nc(OCC(F)(F)F)n1)N2 [Example 3015]	7.00 to 10.00
CC(C)(C)OC(=O)N1CCCCOc2cc(ccc2C(=O)NCC2(CN3CCCC3)CC2)Nc2nc(nc(OCC(F)(F)F)n2)NCc2ccc(cc2)OCCC1 [Example 3016]	7.00 to 10.00
O=C(NCC1(CN2CCCC2)CC1)c1ccc2cc1OCCCCNCCCOc1ccc(cc1)CNc1nc(nc(OCC(F)(F)F)n1)N2 [Example 3017]	7.00 to 10.00
CC(C)(C)NC(=O)N1CCCCOc2cc(ccc2C(=O)NCC2(CN3CCCC3)CC2)Nc2nc(nc(OCC(F)(F)F)n2)NCc2ccc(cc2)OCCC1 [Example 3018]	7.00 to 10.00
COC(=O)N1CCCCOc2cc(ccc2C(=O)NCC2(CN3CCCC3)CC2)Nc2nc(nc(OCC(F)(F)F)n2)NCc2ccc(cc2)OCCC1 [Example 3019]	7.00 to 10.00
CCOC(=O)N1CCCCOc2cc(ccc2C(=O)NCC2(CN3CCCC3)CC2)Nc2nc(nc(OCC(F)(F)F)n2)NCc2ccc(cc2)OCCC1 [Example 3020]	7.00 to 10.00
CC(C)OC(=O)N1CCCCOc2cc(ccc2C(=O)NCC2(CN3CCCC3)CC2)Nc2nc(nc(OCC(F)(F)F)n2)NCc2ccc(cc2)OCCC1 [Example 3021]	7.00 to 10.00
CC(=O)N1CCCCOc2cc(ccc2C(=O)NCC2(CN3CCCC3)CC2)Nc2nc(nc(OCC(F)(F)F)n2)NCc2ccc(cc2)OCCC1 [Example 3022]	7.00 to 10.00
CC(C)C(=O)N1CCCCOc2cc(ccc2C(=O)NCC2(CN3CCCC3)CC2)Nc2nc(nc(OCC(F)(F)F)n2)NCc2ccc(cc2)OCCC1 [Example 3023]	7.00 to 10.00
CC(C)(C)OC(=O)N1CCCOc2cccc(c2)CNc2nc(nc(OCC(F)(F)F)n2)Nc2ccc(C(=O)NCC3(CN4CCCC4)CC3)c(c2)OCCC1 [Example 3024]	6.00 to 7.00
O=C(NCC1(CN2CCCC2)CC1)c1ccc2cc1OCCCNCCCOc1cccc(c1)CNc1nc(nc(OCC(F)(F)F)n1)N2 [Example 3025]	7.00 to 10.00
O=C(NCC1(CN2CCCC2)CC1)c1ccc2cc1OCCCCCCNc1nc(nc(OCC(F)(F)F)n1)N2 [Example 4001]	4.30 to 6.00
O=C(NCC1(CN2CCCC2)CC1)c1ccc2cc1OCCCNCCCCCCCCNc1nc(nc(OCC(F)(F)F)n1)N2 [Example 5002]	7.00 to 10.00

same assay, conditions: Hepatitis C virus, Huh-7, 48 h, numeric value; HCV pseudoparticles genotype 1a (H77C), Huh7 cells, luciferase 2 days after infection, average of duplicates

SMILES	pEC50
COC(=O)N1CCCCOc2cc(ccc2C(=O)NCC2(CN3CCCC3)CC2)Nc2nc(nc(OCC(F)(F)F)n2)NCc2ccc(cc2)OCCC1 [Example 3019]	7.99
O=C(NCC1(CN2CCCC2)CC1)c1ccc2cc1OCCCCCCNc1nc(nc(OCC(F)(F)F)n1)N2 [Example 4001]	4.37
